Results from article PMC12655744, “From Bench to Bioactivity: An Integrated Medicinal Development Based on Kinetic and Simulation Assessment of Pyrazolone-Oxadiazole Coupled Benzamide as Promising Inhibitors of Diabetes Mellitus” (Pharmaceuticals, 2025).

How the values were obtained:
Format in all cases: biochemical
[1] = molecular target: alpha-amylase; test: Alpha-amylase activity assay (starch/DNS, 540 nm); settings: mean ± SEM; read-out: IC50 = α-amylase µM ± SEM
Protocol: % inhibition = (Abs control − Abs sample) × 100
S.3 Alpha-Amylase Activity Assay:
The inhibitory potential of α-Amylase enzyme was evaluated through the standard methodology. A test tube containing (250 µL) of the compound being tested at various concentrations (50–250 µg/mL), (250 µL) of [1% (w/v)] starch solution, and (250 µL) of (1U/mL) alpha-amylase solution was prepared. Post-incubation at 20ᵒC for 3 min, the en-zymatic process was halted by adding (500 µL) of dinitro salicylic acid (color Reagent).
Following this, (250 µL) of α-amylase was immediately introduced after heating the mix-ture in hot water. The mixture was subsequently subjected to heating at 85 ᵒC for duration of 15 min, followed by a 5-min incubation period at room temperature. (4500 µL) of dis-tilled water was added, resulting in a final volume of (6000 µL). Spectrophotometric anal-ysis at 540 nm was conducted to determine absorbance. A control sample devoid of the […]
equation is used for calculation. […]
(§1) Radius of 12 Å around the Montbretin A binding site was defined for enzyme active site. Accomplishment of docking calculations was achieved using Chem PLP scoring function.
(§2) The geometric parameters and energies were computed by density functional theory at the B3LYP/CEP-631G level of theory, using the […] 98W package of the pro- […]
(§3) grams, on geometries that were optimized at CEP-631G basis set.

[2] = molecular target: alpha-glucosidase; test: Alpha-glucosidase inhibition assay (absorbance 405 nm); settings: mean ± SEM; read-out: IC50 = α-glucosidase µM ± SEM
Protocol: 100 µL. The reaction was […] by adding 100 µL of sodium carbonate (200 mM). The absorbance at 405 nm was measured using a microplate reader. This experimental proce-dure was conducted in triplicate, and a control group without the tested compound was included for comparison. […] The percentage […]
inhibition was calculated using the following equation, where “Abs” represents absorb- […]
% inhibition = (Abs control − Abs sample) × 100 […]
as §1, §2, §3

[3] = system: diabetes enzymes; test: Enzyme kinetic studies (mode of inhibition); settings: Figure 8
Text: Enzyme kinetics studies provide the most vital information for how drugs work against the disease, such as binding of the inhibitor with its target, and the concentration required to achieve the desired effects. This study explains that the amount of the drug will be affected, slowing down the biological process. The different patterns for slowing down a process are obtained in the form of curves or slopes. This also provides how various forms of inhibitors or derivatives cause the reaction kinetics to slow in unique ways by adding more inhibitors. […] The substitution of unique functional groups in various sites of the phenyl ring might be responsible for its remarkable efficiency. The graphical curves in Figure 8 show the direct competition of the analog against the substrate for the same spot on the enzyme. […]
100 µL. […] The absorbance at 405 nm was measured using a microplate reader. […] The percentage inhibition was calculated using the following equation, where “Abs” represents absorb- […]
The inhibitory potential of α-Amylase enzyme was evaluated through the standard methodology. […]
Following this, (250 µL) of α-amylase was immediately introduced after heating the mix-ture in hot water. […] Spectrophotometric anal-ysis at 540 nm was conducted to determine absorbance. […]

| Compound | IC50 [1] | IC50 [2] | Mode of inhibition [3] |
| --- | --- | --- | --- |
| O=C1C=C(Nc2nnc(NC(=O)c3c(O)cc(O)cc3O)o2)N=N1 [Compound 3] | 3.2 ± 0.2 µM | 3.6 ± 0.1 µM | competitive inhibitor |
| Cc1ccc(Cl)c(C(=O)Nc2nnc(NC3=CC(=O)N=N3)o2)c1 [Compound 8] | 11.7 ± 0.2 µM | 12.1 ± 0.1 µM |  |
| O=C1C=C(Nc2nnc(NC(=O)c3ccc(Br)cc3)o2)N=N1 [Compound 9] | 15.3 ± 0.1 µM | 16.1 ± 0.2 µM |  |
